# Source: patent US8431540B2, “Modified lysine-mimetic compounds” (Zealand Pharma A/S, priority 2005, dated 2013)
# What was measured:
# [1] = test system: isolated rat atrial strip; test: Isolated atrial strip model of metabolic stress induced atrial conduction slowing; details: rat left atrial strip; 40 min glucose-free, non-oxygenated buffer; control decreased by 22%
# Description: Peptides suitable for administration to cardiac cells can be identified in an in vitro model as described by Haugan et al. (J. Cardiovasc. Electrophysiol., 16, 537-545 (2005)).
# Rats (300-400 g) are killed by a sharp blow on the neck. The heart is rapidly excised and transferred to a small dish containing 37° oxygenated modified Tyrodes buffer containing (in mM): NaCl 136, KCl 4, MgCl2 0.8, CaCl2 1.8 HEPES 5, MES 5, Glucose 6, pH 7.3. The left atrium is carefully dissected and a tissue sample of approximately 2×6 mm is taken from the left atrial appendage and placed in a tissue chamber (volume 5 ml), (Steiert Organ Bath, Hugo Sach Electronic, Germany). The chamber is perfused throughout the study with 37° C. oxygenated Tyrodes buffer at a rate of 10 ml/min.
# A bipolar stimulation electrode (Teflon coated stainless steel, diameter […]) is placed at one end of the tissue. Stimulation is performed at 1 Hz using rectangular pulses at double threshold (duration of stimulus 0.2 ms) delivered by a stimulator (Hugo Sachs, Type 215) through an isolation unit (Universal Isolated Stimulator Unit type 263, Hugo Sachs, Germany).
# Two separate microelectrodes of pure iridium (World Precision Instruments, tip-impedance 3.5-4.0 MΩ) are placed on a line along the long-axis of the preparation for recording of atrial CV. […]
compound,measurement,setting,value
"NCC(=O)N1C[C@H](NC(=O)c2ccccc2)C[C@H]1C(=O)O [Compound 2, (2S4R)1-(2-Amino-acetyl)-4-benzoylamino-pyrrolidine-2-carboxylic acid]",half-life in male rat liver microsomes,,greater than 30 minutes
same,atrial conduction velocity change compared to baseline,[1],did not change compared to baseline
